Experimental findings from paper PMC10537604, “Development and Assessment of 1,5–Diarylpyrazole/Oxime Hybrids Targeting EGFR and JNK–2 as Antiproliferative Agents: A Comprehensive Study through Synthesis, Molecular Docking, and Evaluation” (Molecules, 2023) are described below.

As usually defined, the inhibition is the drop in the measured response relative to a control, in per cent. Broadly, the IC50 is the point on the concentration scale where inhibition reaches its midpoint. As usually defined, the CC50 is the concentration at which the toxic effect on the cells reaches its halfway point.

Read-outs that look alike come from different tables or passages of the source.

The subject of series [1] is human pancreatic cancer cell line SUIT-2. The experiment in a line: WST-8 antiproliferative assay, SUIT-2. The format is cell-based. The protocol: Compounds 7a–j, 8a–j, 9a–c, and 10a–c were evaluated for in vitro anticancer activities against five different cancer cell lines, namely, human colorectal adenocarcinoma cell lines DLD-1, human cervical cancer cell line Hela, human pancreatic cancer cell line SUIT-2, human myelogenous leukemia cell line K562, and human hepatocellular carcinoma cell line HepG2 using WST-8 assay at concentrations of 100 µM to investigate the growth inhibition percent (GI%) of each compound using daunorubicin as a reference drug. […]. […] So, as a conclusion on the SAR study of those compounds as antiproliferative agents, the oxime moiety potentiated the anticancer activity and electron donating groups on R1 and R2 played an important role on this activity. Moreover, the sulfamoyl moiety on R3 seems to play a potential role in the activity of the prepared compounds (Table 1).
All selected compounds and daunorubicin were recorded as the minimum concentration required to inhibit half cell growth (IC50) and the results are listed in Table 2.
Evaluation of anticancer activity was performed according to the standard water-soluble tetrazolium-8 (WST-8) assay at the Faculty of Engineering, Yamagata University, Yonezawa, Japan, using an MTP-310 absorbance microplate reader. The EGFR inhibitory assay was carried out at the Faculty of Engineering, Yamagata University, Yonezawa, Japan, according to the protocol enzyme linked immunosorbent assay (ELISA) kits (Douset sandwich ELISA test, recombinant mouse EGFR). The JNK-2 inhibitory assay was performed at the Faculty of Engineering, Yamagata University, Yonezawa, Japan, according to the protocol of enzyme-linked immunosorbent assay (ELISA), the assay was carried out using the JNK-2 kit (Simple Step ELISA, pT183/Y185, Abcam Company, Cambridge, CB2 0AX, UK). Apoptosis and cell cycle analysis was performed at Faculty of medicine, Yamagata University, Yamagata, Japan, using BD FACS melody. Molecular docking was performed at the Nano Medical Engineering Laboratory, RIKEN Cluster for Pioneering Researchers, RIEKN, Japan, using ICM-Pro 3.8 software (MolSoft L.L.C., San Diego, CA, USA).
According to the standard water-soluble tetrazolium-8 (WST-8) assay, the current synthesized compounds have been tested for their anticancer activities against different five cancer cell lines; DLD-1, Hela, K562, SUIT-2, and HepG2 and daunorubicin was used as reference drug by the WST-8 assay. The five cells were maintained in a suspension culture, (Dulbecco’s modified eagle medium (DMEM) for SUIT-2, Hela, and HepG2 or PRIM for K562 and DLD), supplemented with 5% FBS (Fetal Bovine Serum) containing 1% of a penicillin-streptomycin (1:1) mixture. A 100 μL aliquot of cells (10,000 cells/mL) was added to a 96 well plate and incubated for 24 h at 37 °C in a humidified incubator containing 5% CO2 in the air. After 24 h, a 10 μL aliquot of test compound (concentrations varying in the range of 10–150 µM) was added to each of the 96 wells and incubated for 24 h. Then A 10 μL WST-8 solution (mixture of WST-8 and 1-methoxy PMS) was added to each well and the incubation continued for 3 h. The visible absorbance at 450 nm and 630 nm as the reference wavelength of each well was quantified using an MTP-310 absorbance microplate reader. Daunorubicin was used as a positive control. The results of cytotoxicity were recorded as growth inhibition percentages and as IC50 values.
For orientation: Tetrazolium assays rely on reduction of a dye to a coloured formazan, in cell work by metabolically active cells.

The test system of series [2] is human colorectal adenocarcinoma cell line DLD-1. The experiment in a line: WST-8 antiproliferative assay, DLD-1. Format: cell-based. As to conditions: WST-8 assay, six concentrations 1-100 µM.
Series [3] relates to human pancreatic cancer cell line SUIT-2. The experiment in a line: WST-8 antiproliferative assay, SUIT-2. The format is cell-based. As to conditions: WST-8 assay, six concentrations 1-100 µM.
Series [4] has as its system human hepatocellular carcinoma cell line HepG2. The experiment in a line: WST-8 antiproliferative assay, HepG2. The format is cell-based. The note with it: WST-8 assay, six concentrations 1-100 µM.
A further series concerns the target T1, JNK-2 (Homo sapiens, UniProt P45984).
T1 construct: HEK293 only for the control lysate
The series can be described thus: JNK-2 inhibitory assay (SimpleStep ELISA, pT183/Y185). As to conditions: read-out: IC50 (µM) against JNK-2. Format: biochemical. Background: An ELISA detects its analyte on a solid surface through an enzyme-linked reagent.

The next series relates to Hela cells. The experiment in a line: Apoptosis assay, annexin V/PI flow cytometry. The format is cell-based, human. As to conditions: concentration double the IC50, 24 h. The source says:
For further investigation of the anticancer activity of compounds 8g and 8i, studies of apoptotic changes after treatment of Hela cells with these inhibitors were examined using fluorescent microscope and flowcytometry. Moreover, to discriminate between apoptosis and necrosis after the treatment of Hela cell with two inhibitors 8g and 8i at different concentrations, a fluorescent microscope was used to distinguish between apoptosis and necrosis based on their characteristic difference in morphology using annexin V and PI [52]. […] This was exposed in the cell membrane of the Hela cells after treatment with two inhibitors due to plasma membrane sprouting and chromatin concentration. The prolonged incubation of Hela cells with two inhibitors directed cells to necrosis, which was marked in red because of the PI staining of necrotic cells as a result of losing their dye-excluding ability owing to a loss of plasma membrane integrity and the dissolution of nuclear chromatin [53] (Figure S1).
Then, 200 µL of medium was added to separate cells, cells were centrifuged for 5 min, and supernatant was decanted. Then, it was washed twice with 100 µL PBS and 200 µL of buffer, 5 µL of PI& Annexin, and 200 µL of PBS was added for the test compounds. For control, 400 µL of PBS was added. […]
(In flow cytometry, cells or beads pass a laser one at a time.)

Series [5] can be described thus: WST-8 cytotoxicity towards normal cell line PC12. Format: cell-based, rat. The note with it: rat, PC12 cells; WST-8 assay, six concentrations 1-100 μM; read-out: CC50 against PC12 cell line. The protocol: The evaluation of normal cell viability is fundamental in analyzing the efficacy of target compounds and is often used in conjunction with cytotoxicity tests to help understand how target compound toxicity affects normal cell health. […] A 100 μL aliquot of cells (10,000 cells/mL) was added to a 96 well plate and incubated for 24 h at 37 °C in a humidified incubator containing 5% CO2 in the air. […] Then, a 10 μL WST-8 solution (mixture of WST-8 and 1-methoxy PMS) was added to each well and the incubation continued for 3 h. The visible absorbance at 450 nm and 630 nm as the reference wavelength of each well was quantified using an MTP-310 absorbance microplate reader. Daunorubicin was used as a positive control. The results of cytotoxicity were recorded as growth inhibition percentages and as IC50 values.

Where [6] appears, read: SUIT-2, 100 µM, WST-8 assay, read-out: Growth Inhibition (GI%) SUIT-2.

T1 sequence (P45984 whole entry): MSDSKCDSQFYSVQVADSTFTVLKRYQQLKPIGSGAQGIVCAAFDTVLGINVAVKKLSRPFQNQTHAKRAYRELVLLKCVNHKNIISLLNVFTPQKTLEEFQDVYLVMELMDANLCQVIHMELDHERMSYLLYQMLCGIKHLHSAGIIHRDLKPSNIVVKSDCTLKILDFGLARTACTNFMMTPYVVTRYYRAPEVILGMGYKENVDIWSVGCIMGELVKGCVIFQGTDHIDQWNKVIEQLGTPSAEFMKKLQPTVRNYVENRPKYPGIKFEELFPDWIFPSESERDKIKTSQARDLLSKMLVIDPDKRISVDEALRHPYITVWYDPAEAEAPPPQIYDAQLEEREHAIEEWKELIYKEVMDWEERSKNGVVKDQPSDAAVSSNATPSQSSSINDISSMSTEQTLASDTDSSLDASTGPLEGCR
Method for JNK-2: The SimpleStep ELISA employs an affinity tag-labelled capture antibody and a reporter attached detector antibody to immunocapture the sample analyte in solution. This complete complex (capture antibody/analyte/detector antibody) is then immobilized via immunoaffinity of an anti-tag antibody coating the well. To perform the assay, samples or controls are added to the wells, followed by the antibody cocktail. After incubation, the wells are washed to remove unbound material. TMB substrate is added and during incubation is catalyzed by HRP, generating blue coloration. This reaction is then stopped by the addition of stop solution, completing any color change from blue to yellow. The signal is generated proportionally to the amount of bound analyte and the intensity is measured at 450 nm. Optionally, instead of the endpoint reading, the development of TMB can be recorded kinetically at 600 nm. An antibody cocktail can be prepared by combining an appropriate volume of the capture and detector antibodies immediately prior to assay. To make 3 mL of the antibody cocktail, combine 1.5 mL of capture antibody with 1.5 mL of detector antibody. Mix thoroughly and gently. Control lysate can be prepared from HEK293 cells, cultured in 10% FBS containing medium, then treated with 1 μg/mL anisomycin. After preparing all the reagents, samples, and control as instructed and following the previously published procedures [74, 75], add 50 µL of sample or control to the well, add 50 µL of the antibody cocktail, then incubate at room temperature for 1 h on a plate shaker set to 400 rpm, aspirate and wash each well three times with 350 μL with wash buffer, add 100 μL TMB substrate to each well and incubate for 15 min, then add 100 μL stop solution and measure the absorbance at 450 nm.

As to `COc1cc(/C(C)=N/O)ccc1OC(=O)c1cc(-c2ccccc2)n(-c2ccccc2)n1` [Compound 8a, (E)–4–(1–(Hydroxyimino)ethyl)2–methoxyphenyl 1,5–diphenyl–1H–pyrazole–3–carboxylate], the inhibition at 100 µM in series [1] (setting [6]) worked out at 77%.
As to `COc1cc(/C(C)=N/O)ccc1OC(=O)c1cc(-c2ccc(C)cc2)n(-c2ccccc2)n1` [Compound 8b, (E)–4–(1–(Hydroxyimino)ethyl)–2–methoxyphenyl 1–phenyl–5–p–tolyl–1H–pyrazole–3–carboxylate], the inhibition at 100 µM in series [1] (setting [6]) stood at 102%. In addition, the half-inhibitory concentration (IC50) came out at 10 µM in series [2], 27 µM in series [3] and 35.7 µM in series [4].
For `COc1cc(/C(C)=N/O)ccc1OC(=O)c1cc(-c2ccc(Cl)cc2)n(-c2ccccc2)n1` [Compound 8d, (E)–4–(1–(Hydroxyimino)ethyl)–2–methoxyphenyl 5–(4–chlorophenyl)–1–phenyl–1H–pyrazole–3–carboxylate], in series [1] (SUIT-2, read-out: Growth Inhibition (GI%) SUIT-2), the inhibition at 100 µM turned out to be 77%. For the same molecule, the IC50 on JNK-2 was 49 µM.
Regarding `COc1ccc(-c2cc(C(=O)Oc3ccc(/C(C)=N/O)cc3OC)nn2-c2ccccc2)cc1OC` [Compound 8e, (E)–4–(1–(Hydroxyimino)ethyl)–2–methoxyphenyl 5–(3,4–dimethoxy phenyl)–1–phenyl–1H–pyrazole–3–carboxylate], in series [1] (setting [6]), the inhibition at 100 µM was 83%. Further, in series [4], the IC50 amounted to 4.7 µM.
For `COc1cc(/C(C)=N/O)ccc1OC(=O)c1cc(-c2ccccc2)n(-c2ccc(S(N)(=O)=O)cc2)n1` [Compound 8f, (E)–4–(1–(Hydroxyimino)ethyl)–2–methoxyphenyl 5–phenyl–1–(4–sulfamoyl phenyl)–1H–pyrazole–3–carboxylate] the same measures were 95% and 22.3 µM.
On to `COc1cc(/C(C)=N/O)ccc1OC(=O)c1cc(-c2ccc(C)cc2)n(-c2ccc(S(N)(=O)=O)cc2)n1` [Compound 8g, (E)–4–(1–(Hydroxyimino)ethyl)–2–methoxyphenyl 1–(4–sulfamoylphenyl)–5–p–tolyl–1H–pyrazole–3–carboxylate], for which the inhibition at 100 µM in series [1] (setting [6]) came out at 96%. In addition, the “percentage of apoptotic Hela cells” value with Hela cells is 34.7%. For the same molecule, the IC50 was 32.3 µM in series [2], > 200 µM on JNK-2, 19 µM in series [3] and 12.3 µM in series [4]. The CC50 at 24 h in series [5] is 16.1 µM.
Turning to `COc1ccc(-c2cc(C(=O)Oc3ccc(/C(C)=N/O)cc3OC)nn2-c2ccc(S(N)(=O)=O)cc2)cc1` [Compound 8h, (E)–4–(1–(Hydroxyimino)ethyl)–2–methoxyphenyl 5–(4–methoxyphenyl)–1–(4–sulfamoyl phenyl)–1H–pyrazole–3–carboxylate], the inhibition at 100 µM in series [1] (setting [6]) was 73%. The IC50 in series [3] is 26 µM.
As for `COc1cc(/C(C)=N/O)ccc1OC(=O)c1cc(-c2ccc(Cl)cc2)n(-c2ccc(S(N)(=O)=O)cc2)n1` [Compound 8i, (E)–4–(1–(Hydroxyimino)ethyl)–2–methoxyphenyl 5–(4–chlorophenyl)–1–(4–sulfamoyl phenyl)–1H–pyrazole–3–carboxylate], the inhibition at 100 µM in series [1] (setting [6]) worked out at 98%. For the same molecule, in the series on Hela cells, the “percentage of apoptotic Hela cells” value is given as 17.3%. Also, the IC50 at JNK-2 was 1 µM; in series [3], 62 µM. In addition, the CC50 at 24 h in series [5] was > 100 µM.
Turning to `C/C(=N\O)c1ccc(NC(=O)c2cc(-c3ccccc3)n(-c3ccc(S(N)(=O)=O)cc3)n2)cc1` [Compound 10a, (E)–N–(4–(1–(Hydroxyimino)ethyl)phenyl)–5–phenyl–1–(4–sulfamoylphenyl)–1H–pyrazole–3–carboxamide], the inhibition at 100 µM in series [1] (setting [6]) is 88%. The molecule also gave an IC50 in series [2] of 26 µM.
The corresponding values for `COc1ccc(-c2cc(C(=O)Nc3ccc(/C(C)=N/O)cc3)nn2-c2ccc(S(N)(=O)=O)cc2)cc1` [Compound 10b, (E)–N–(4–(1–(Hydroxyimino)ethyl)phenyl)–5–(4–methoxyphenyl)–1–(4–sulfamoylphenyl)–1H–pyrazole–3–carboxamide] are 50% and 36 µM.
Turning to `COc1ccc(-c2cc(C(=O)Nc3ccc(/C(C)=N/O)cc3)nn2-c2ccc(S(N)(=O)=O)cc2)cc1OC` [Compound 10c, (E)–5–(3,4–Dimethoxyphenyl)–N–(4–(1–(hydroxyimino)ethyl)phenyl)–1–(4–sulfamoyl phenyl)–1H–pyrazole–3–carboxamide], in series [1] (setting [6]), the inhibition at 100 µM is 103%. Also, the IC50 in series [3] came out at 13 µM.
